Test results: patent publication US20210015098A1, “MOLECULES HAVING PESTICIDAL UTILITY, AND INTERMEDIATES, COMPOSITIONS, AND PROCESSES, RELATED THERETO” (DOW AGROSCIENCES LLC, priority 2018, published 2021)

Columns and labels:
Format in all cases: in vivo
[1] = system: Beet Armyworm (Spodoptera exigua, LAPHEG); experiment: Bioassays on Beet Armyworm (BAW), 128-well diet tray assay; settings: for mortality at 50 µg/cm2: 168 h, 50 μg/cm^2 on artificial diet, second instar larvae, 25° C., five to seven days, read-out: BAW % Control (or Mortality) rating; for pest or weed control at 50 µg/cm2: Beet Armyworm, Table ABC Biological Results, read-out: BAW (rating)
How it was run: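 Eight diet wells per compound were treated at 50 μg/cm^2 (acetone-water 90:10), dried, then infested with 1–5 second-instar larvae each. After five to seven days at 25 °C under 14:10 photoperiod, mortality was scored and averaged across wells.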

[2] = system: Cabbage Looper (Trichoplusia ni, TRIPNI); experiment: Bioassays on Cabbage Looper (CL), 128-well diet tray assay; settings: for mortality at 50 µg/cm2: 168 h, 50 μg/cm^2 on artificial diet, second instar larvae, 25° C., five to seven days, read-out: CL % Control (or Mortality) rating; for pest or weed control at 50 µg/cm2: Cabbage Looper, Table ABC Biological Results, read-out: CL (rating)
How it was run: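 Activity is mean percent mortality over eight wells of second-instar larvae exposed to diet treated at 50 μg/cm^2 for 5–7 days at 25° C.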

[3] = system: Green Peach Aphid (Myzus persicae, MYZUPE); experiment: Bioassays on Green Peach Aphid (GPA), foliar spray on cabbage seedlings; settings: for GPA (rating): Green Peach Aphid, Table ABC Biological Results
Method: Certain molecules disclosed in this document were tested against GPA using procedures described in the following example. In the reporting of the results, the “GPA & YFM Rating Table” was used (See Table Section).
Cabbage seedlings grown in 3-inch pots, with 2-3 small (3-5 cm) true leaves, were used as test substrate. The seedlings were infested with 20-50 GPA (wingless adult and nymph stages) one day prior to chemical application. Four pots with individual seedlings were used for each treatment. Test molecules (2 mg) were dissolved in 2 mL of acetone/methanol (1:1) solvent, forming stock solutions of 1000 ppm test molecule. The stock solutions were diluted 5× with 0.025% Tween 20 in water to obtain the solution at 200 ppm test molecule. A hand-held aspirator-type sprayer was used for spraying a solution to both sides of […] leaves until runoff. Reference plants (solvent check) were sprayed with the diluent only containing 20% by volume of acetone/methanol (1:1) solvent. Treated plants were held in a holding room for three days at approximately 25° C. and ambient relative humidity (RH) prior to grading. Evaluation was conducted by counting the number of live aphids per plant under a microscope. Percent control was measured using Abbott's correction formula (W. S. Abbott, “A Method of Computing the Effectiveness of an Insecticide” J. Econ. Entomol. 18 (1925), pp. 265-267) as follows. Corrected % Control=100*(X−Y)/X where X=No. of live aphids on solvent check plants and Y=No. of live aphids on treated plants. The results are indicated in the table entitled “Table ABC: Biological Results” (See Table Section).

[4] = system: Yellow Fever Mosquito (Aedes aegypti, AEDSAE); settings: for YFM % Control (or Mortality) rating: about 1 day-old larvae, 96-well plate, room temperature, 3 days; for YFM (rating): Yellow Fever Mosquito, Table ABC Biological Results
Method: Certain molecules disclosed in this document were tested against YFM using procedures described in the following paragraph. In the reporting of the results, the “GPA & YFM Rating Table” was used (See Table Section).
Master plates containing 400 μg of a molecule dissolved in 100 μL of dimethyl sulfoxide (DMSO) (equivalent to a 4000 ppm solution) are used. A master plate of assembled molecules contains 15 μL per well. To this plate, 135 μL of a 90:10 water/acetone mixture is added to each well. A robot (Biomek® NXP Laboratory Automation Workstation) is programmed to dispense 15 μL aspirations from the master plate into an empty 96-well shallow plate (“daughter” plate). There are 6 reps (“daughter” plates) created per master. The created “daughter” plates are then immediately infested with YFM larvae.
The day before plates are to be treated, mosquito eggs are placed in Millipore water containing liver powder to begin hatching (4 g into 400 mL). After the “daughter” plates are created using the robot, they are infested with 220 μL of the liver powder/larval mosquito mixture (about 1 day-old larvae). After plates are infested with mosquito larvae, a non-evaporative lid is used to cover the plate to reduce drying. Plates are held at room temperature for 3 days prior to grading. After 3 days, each well is observed and scored based on mortality. The results are indicated in the table entitled “Table ABC: Biological Results” (See Table Section).

Row | Structure (SMILES) | mortality at 50 µg/cm2 [1] | mortality at 50 µg/cm2 [2] | mortality at 200 ppm ([3]; Myzus persicae, 72 h, 200 ppm foliar spray on cabbage seedlings, three days, Abbott corrected % control, read-out: GPA % Control (or Mortality) rating) | YFM % Control (or Mortality) rating [4] | pest or weed control at 50 µg/cm2 [1] | pest or weed control at 50 µg/cm2 [2] | GPA (rating) [3] | YFM (rating) [4]
1 | Nc1c(F)ccc(NC(=O)c2cc(NC(=O)[C@H]3[C@H](c4cccc(C(F)(F)F)c4)C3(Cl)Cl)ccc2Cl)c1F [DP6, N-(3-Amino-2,4-difluorophenyl)-2-chloro-5-((1R,3R)-2,2-dichloro-3-(3-(trifluoromethyl)phenyl)cyclopropane-1-carboxamido)benzamide] | 50 to 100% | 50 to 100% | 80 to 100% | B (More than 0-Less than 80) |  |  |  | 
2 | Nc1c(F)ccc(NC(=O)c2cc(NC(=O)[C@H]3[C@H](c4cc(Cl)c(Cl)c(Cl)c4)C3(Cl)Cl)ccc2Cl)c1F [DP2, N-(3-amino-2,4-difluorophenyl)-2-chloro-5-((1R,3R)-2,2-dichloro-3-(3,4,5-trichlorophenyl)cyclopropane-1-carboxamido)benzamide] | 50 to 100% | 50 to 100% |  | A (80-100) |  |  |  | 
3 | Nc1c(F)ccc(NC(=O)c2cc(NC(=O)[C@H]3[C@H](c4ccc(F)c(Cl)c4)C3(Cl)Cl)ccc2Cl)c1F [DP4, N-(3-Amino-2,4-difluorophenyl)-2-chloro-5-((1R,3R)-2,2-dichloro-3-(3-chloro-4-fluorophenyl)cyclopropane-1-carboxamido)benzamide] | 50 to 100% | 50 to 100% |  | A (80-100) |  |  |  | 
4 | Nc1c(F)ccc(NC(=O)c2cc(NC(=O)[C@H]3[C@H](c4ccc(Cl)c(Cl)c4)C3(Cl)Cl)ccc2Cl)c1F [DP3, N-(3-Amino-2,4-difluorophenyl)-2-chloro-5-((1R,3R)-2,2-dichloro-3-(3,4-dichlorophenyl)cyclopropane-1-carboxamido)benzamide] | 50 to 100% | 50 to 100% |  | A (80-100) |  |  |  | 
5 | C=CCSCC(=O)Nc1c(F)ccc(NC(=O)c2cc(NC(=O)[C@H]3[C@H](c4ccc(F)c(C(F)(F)F)c4)C3(Cl)Cl)ccc2Cl)c1F [F3, N-(3-(2-(Allylthio)acetamido)-2,4-difluorophenyl)-2-chloro-5-((1R,3R)-2,2-dichloro-3-(4-fluoro-3-(trifluoromethyl)phenyl)cyclopropane-1-carboxamido)benzamide] |  |  |  |  | 50 to 100% | 50 to 100% | B (More than 0-Less than 80) | 
6 | O=C(CSC(F)(F)F)Nc1c(F)ccc(NC(=O)c2cc(NC(=O)[C@H]3[C@H](c4ccc(F)c(C(F)(F)F)c4)C3(Cl)Cl)ccc2Cl)c1F [F17, 2-Chloro-5-((1R,3R)-2,2-dichloro-3-(4-fluoro-3-(trifluoromethyl)phenyl)cyclopropane-1-carboxamido)-N-(2,4-difluoro-3-(2-((trifluoromethyl)thio)acetamido)phenyl)benzamide] |  |  |  |  | 50 to 100% | 50 to 100% |  | A (80-100)
7 | O=C(CCS(=O)(=O)C(F)(F)F)Nc1c(F)ccc(NC(=O)c2cc(NC(=O)[C@H]3[C@H](c4ccc(F)c(C(F)(F)F)c4)C3(Cl)Cl)ccc2Cl)c1F [F46, 2-Chloro-5-((1R,3R)-2,2-dichloro-3-(4-fluoro-3-(trifluoromethyl)phenyl)cyclopropane-1-carboxamido)-N-(2,4-difluoro-3-(3-((trifluoromethyl)sulfonyl)propanamido)phenyl)benzamide] |  |  |  |  | 50 to 100% | 50 to 100% |  | A (80-100)
8 | Nc1c(F)ccc(NC(=O)c2cc(NC(=O)[C@H]3[C@H](c4ccc(F)c(C(F)(F)F)c4)C3(Cl)Cl)ccc2Cl)c1F [DP5, N-(3-Amino-2,4-difluorophenyl)-2-chloro-5-((1R,3R)-2,2-dichloro-3-(4-fluoro-3-(trifluoromethyl)phenyl)cyclopropanecarboxamido)benzamide] | 50 to 100% | 50 to 100% |  | A (80-100) |  |  |  | 
9 | O=C(CSCC(F)(F)F)Nc1c(F)ccc(NC(=O)c2cc(NC(=O)[C@H]3[C@H](c4ccc(F)c(C(F)(F)F)c4)C3(Cl)Cl)ccc2Cl)c1F [F15, 2-chloro-5-((R,3R)-2,2-dichloro-3-(4-fluoro-3-(trifluoromethyl)phenyl)cyclopropane-1-carboxamido)-N-(2,4-difluoro-3-(2-((2,2,2-trifluoroethyl)thio)acetamido)phenyl)benzamide] |  |  |  |  | 50 to 100% | 50 to 100% |  | A (80-100)
10 | Nc1c(F)ccc(NC(=O)c2cc(NC(=O)[C@H]3[C@H](c4cc(C(F)(F)F)cc(C(F)(F)F)c4)C3(Cl)Cl)ccc2Cl)c1F (relative stereo) [DP7, trans-N-(3-Amino-2,4-difluorophenyl)-5-(3-(3,5-bis(trifluoromethyl)phenyl)-2,2-dichlorocyclopropane-1-carboxamido)-2-chlorobenzamide] | 50 to 100% | 50 to 100% |  | A (80-100) |  |  |  | 
11 | CC[S+]([O-])C(C)C(=O)Nc1c(F)ccc(NC(=O)c2cc(NC(=O)[C@H]3[C@H](c4ccc(F)c(C(F)(F)F)c4)C3(Cl)Cl)ccc2Cl)c1F (stereo partly drawn) [F34, 2-chloro-5-((R,3R)-2,2-dichloro-3-(4-fluoro-3-(trifluoromethyl)phenyl)cyclopropane-1-carboxamido)-N-(3-(2-(ethylsulfinyl)propanamido)-2,4-difluorophenyl)benzamide] |  |  |  |  | 50 to 100% | 50 to 100% | B (More than 0-Less than 80) | A (80-100)
12 | CC(C)(C)OC(=O)N(C(=O)OC(C)(C)C)c1c(F)ccc(NC(=O)c2cc(NC(=O)[C@H]3[C@H](c4cc(Cl)c(Cl)c(Cl)c4)C3(Cl)Cl)ccc2Cl)c1F [DP1, tert-butyl-N-((tert-butoxy)carbonyl)-N-(3-(2-chloro-5-((1R,3R)-2,2-dichloro-3-(3,4,5-trichlorophenyl)cyclopropane-1-carboxamido)benzamido)-2,6-difluorophenyl)carbamate] | 0 to 50% | 0% |  | D (No activity noticed in this bioassay) |  |  |  | 
13 | O=C(CCSCCC(F)(F)F)Nc1c(F)ccc(NC(=O)c2cc(NC(=O)[C@H]3[C@H](c4ccc(F)c(C(F)(F)F)c4)C3(Cl)Cl)ccc2Cl)c1F [F21, 2-Chloro-5-((1R,3R)-2,2-dichloro-3-(4-fluoro-3-(trifluoromethyl)phenyl)cyclopropane-1-carboxamido)-N-(2,4-difluoro-3-(3-((3,3,3-trifluoropropyl)thio)propanamido)phenyl)benzamide] |  |  |  |  | 50 to 100% | 50 to 100% |  | A (80-100)
